Measured values taken from publication PMC8379219 (Nature Communications, 2021).

Experiments:
SERT Q332A = SERT Q332A (Homo sapiens, UniProt P31645, Q332A); experiment: [3H]5-HT transport, COS-7 cells, S2 mutant Q332A; format: cell-based
Description: (§1) All determinations were performed in triplicate.

SERT F335A = SERT F335A (Homo sapiens, UniProt P31645, F335A); experiment: [3H]5-HT transport, COS-7 cells, S2 mutant F335A; format: cell-based
Description: as §1

SERT = details: cited from earlier work
SERT WT = SERT WT (Homo sapiens, UniProt P31645); experiment: [3H]IMI dissociation rate assay (allosteric potency), COS-7 membranes; format: binding; parameters: expressed in transfected cells; host or cells: COS-7;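 also: radioligand pre-bound 30 min at room temperature to equilibrium, then dissociation followed over 5–70 min, ended by filtration through GF/B filters, at least three independent experiments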

**Q.** With `NCCc1c[nH]c2ccc(O)cc12` [5-HT, 5-[1,2-^3H]hydroxytryptamine] as the compound, how does the “5-HT VMAX” value (SERT Q332A) read?
**A.** Its value is 1151 ± 64 pmol/min/10^5 cells.

**Q.** And the “5-HT VMAX” value (SERT F335A)?
**A.** The value was 2368 ± 394 pmol/min/10^5 cells.

**Q.** With `NC(=O)c1ccc2c(c1)CO[C@@]2(CCCN1CCC(c2ccc3ccc(=O)[nH]c3c2)CC1)c1ccc(F)cc1` [Lu AF60097] as the compound, how does the Allosteric potency (SERT; [3H]IMI bound to S1) read?
**A.** Its Allosteric potency is ~ 30 nM.

**Q.** Which “Slope for [3H]IMI dissociation” value (SERT WT) does the source give for `CN(C)CCCN1c2ccccc2CCc2ccccc21` [IMI, Imipramine] here?
**A.** The value was 0.528 ± 0.012 min⁻¹.

**Q.** What about the “Allosteric properties at SERT” value (SERT; ref Plenge et al 1990 Eur J Pharmacol) of the same compound?
**A.** Its value is “very weak allosteric properties”.
